# In patent publication US7534887B2, “Thiazoline derivative and use of the same” (Takeda Pharmaceutical Company Limited, priority 2003, dated 2009):
# Counter-ions that a name gives are not always drawn.
# Biological target: human FXa (Homo sapiens, UniProt P00742)
# Assay: Inhibitory action of human activated blood coagulation factor X (FXa)
# Format: biochemical
# Conditions: concentration inhibiting FXa activity by 50%; substrate S-2765, 37° C., absorbance at 405 nm
# Experimental: (1) Inhibitory Action of Human Activated Blood Coagulation Factor X (FXa):
# Test method: A solution (225 μL) of 0.05M tris-hydrochloric acid buffers (pH=8.3) containing 0.145 M of sodium chloride and 2 mM of calcium chloride, a test compound dissolved in dimethyl sulfoxide (5 μL) and human FXa (10 μL, 0.3 unit/ml) were added to a 96-well microplate and reacted at 37° C. for about 10 minutes, and then a substrate (10 μL, 3 mM, S-2765) was added to be reacted at 37° C. for 10 minutes. Then, after aqueous 50% acetic acid (25 μL) was added there to stop the reaction, the change of absorbance at 405 nm was measured by a microplatereader, and a concentration inhibiting FXa activity by 50% (IC50) was calculated.
# Sequence of human FXa (P00742 235-488 limits assumed): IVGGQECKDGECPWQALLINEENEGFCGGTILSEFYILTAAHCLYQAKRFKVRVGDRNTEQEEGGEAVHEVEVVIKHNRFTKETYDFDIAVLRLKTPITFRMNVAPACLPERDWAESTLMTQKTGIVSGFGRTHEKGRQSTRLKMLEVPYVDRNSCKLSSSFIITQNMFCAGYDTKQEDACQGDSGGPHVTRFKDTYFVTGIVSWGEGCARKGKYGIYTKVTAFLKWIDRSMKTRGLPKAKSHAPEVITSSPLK
# Sequence of human FXa (P00742 41-179 partner limits assumed): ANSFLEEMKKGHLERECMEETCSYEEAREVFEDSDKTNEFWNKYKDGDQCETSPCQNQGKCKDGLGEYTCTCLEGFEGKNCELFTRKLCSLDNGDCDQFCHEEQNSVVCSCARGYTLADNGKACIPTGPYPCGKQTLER
row,IC50,Compound
1,8.3 nM,"C/N=c1\sc(C2CCN(C(=O)CCS(=O)(=O)c3ccc4cc(Cl)ccc4c3)CC2)c(C(=O)O)n1C [Example 68, (2Z)-5-(1-(3-((6-Chloro-2-naphthyl)sulfonyl)propanoyl)-1-piperidinyl)-3-methyl-2-(methylimino)-2,3-dihydro-1,3-thiazole-4-carboxylic acid]"
2,11 nM,C/N=c1\sc(C2CCN(C(=O)CCS(=O)(=O)c3ccc4cc(Cl)ccc4c3)CC2)c(CO)n1C [Example 38]
3,60 nM,"Cn1cc(C2CCN(C(=O)CCS(=O)(=O)c3ccc4cc(Cl)ccc4c3)CC2)sc1=N [Example 58, 5-(1-(3-((6-Chloro-2-naphthyl)sulfonyl)propanoyl)-4-piperidinyl)-3-methyl-1,3-thiazol-2(3H)-imine]"
4,9.4 nM,"C/N=c1\sc(C2CCN(C(=O)CCS(=O)(=O)c3ccc4cc(Cl)ccc4c3)CC2)c(C(=O)OC)n1C [Example 77, Methyl (2Z)-5-(1-(3-((6-chloro-2-naphthyl)sulfonyl)propanoyl)-1-piperidinyl)-3-methyl-2-(methylimino)-2,3-dihydro-1,3-thiazol-4-carboxylate]"
5,22 nM,"Cn1c(CN2CCN(C(=O)CCS(=O)(=O)c3ccc4cc(Cl)ccc4c3)CC2)csc1=N [Example 12, 4-((4-(3-((6-Chloro-2-naphthyl)sulfonyl)propanoyl)-1-piperazinyl)methyl)-3-methyl-1,3-thiazol-2(3H)-imine dihydrochloride]"
6,14 nM,"COC(=O)C1CN(CC2=CSC3=NCCN23)CCN1C(=O)CCS(=O)(=O)c1ccc2cc(Cl)ccc2c1 (stereo not shown) [Example 44, Methyl 1-(3-((6-chloro-2-naphthyl)sulfonyl)propanoyl)-4-(5,6-dihydroimidazo[2,1-b][1,3]thiazol-3-ylmethyl)piperazine-2-carboxylate]"
7,6.7 nM,C/N=c1\sccn1CCC1CCN(C(=O)CCS(=O)(=O)c2ccc3cc(Cl)ccc3c2)CC1 [Example 83]
8,57 nM,"C/N=c1\scc(CN2CCN(C(=O)CCS(=O)(=O)c3ccc4cc(Cl)ccc4c3)CC2)n1C [Example 5, N-((2Z)-4-((4-(3-((6-Chloro-2-naphthyl)sulfonyl)propanoyl)-1-piperazinyl)methyl)-3-methyl-1,3-thiazol-2(3H)-ylidene)-N-methylamine dihydrochloride]"
9,47 nM,"O=C(CCS(=O)(=O)c1ccc2cc(Cl)ccc2c1)N1CCC(/N=c2\sccn2CCO)CC1 [Example 92, 2-((2Z)-2-((1-(3-((6-Chloro-2-naphthyl)sulfonyl)propanoyl)-4-piperidinyl)imino)-1,3-thiazol-3(2H)-yl)ethanol]"

row,Compound,IC50
1,"N-((2Z)-5-(1-(3-((6-Chloro-2-naphthyl)sulfonyl)propanoyl)-1-piperidinyl)-3-methyl-1,3-thiazol-2(3H)-ylidene)-N-methylamine [Example 46]",30 nM
